Experimental data from patent US20130244875A1, “METHODS AND COMPOSITIONS FOR IMPROVING PLANT HEALTH” (priority 2006, published 2013).
Read-outs that look alike come from different tables or passages of the source.

Tests used:
[1] = system: PR-2, i.e., β-1,3-glucanase; assay: Induction of PR2 (northern blot) in DMO soybean sprayed with dicamba or DCSA; type: in vivo
Protocol: A 14 hour minimum photoperiod was provided with supplemental light at about 600 μE (micro-Einsteins) as needed. Trials were established in a randomized block design randomized by rate with 4 to 6 replications of each treatment.
All herbicide applications were made with the track sprayer using a Teejet® 9501E flat fan nozzle (Spraying Systems Co, Wheaton, Ill.) with air pressure set at a minimum of 24 psi (pounds per square inch), or 165 kpa (kilopascals)). The spray nozzle was kept at a height of about 16 inches above the top of plant material for spraying. The spray volume was 10 gallons per acre or 93 liters per hectare. Applications were made when plants had reached V-3 stage.
Events carrying a DMO transgene in their genome were grown and treated with dicamba (Clarity®, BASF) at 1 lb/Acre at Post-V3 stage. Leaf samples were harvested after 0, 3, 8, 24, 48, 72 hrs after treatment (HAT) and frozen for further analysis. In another experiment, DMO-containing plants were sprayed with either dicamba or DCSA at 0.25, 0.5 and 1 lb/Acre rate and tissue samples were collected 24 HAT. RNA was extracted and analyzed by northern blot analysis using PR-2, i.e., β-1,3-glucanase as a probe. PR-2 is a pathogenesis-related protein known to degrade […] and thus provide protection against fungal pathogens (U.S. Pat. No. 5,670,706 and Uknes et al., 1992).

PR5 = assay: Induction of PR5 (northern blot) by dicamba or DCSA; type: in vivo, soybean; conditions: probe specific to PR5; procedures as for PR2
transgenic soybean = assay: Soybean yield field trials with dicamba treatments
Protocol: The yield enhancing-benefit of DSCA was tested by growing non-transgenic and transgenic plants and applying dicamba to transgenic plants and harvesting the seeds. Non-transgenic and transgenic soybean seeds were planted near the beginning of the growing season in several locations at the time of best possible growth conditions such as soil moisture, temperature, and seeding depth. Across all locations seeds were planted under split-plot design with dicamba treatments as whole-plot effects and events as split-plot effects. The design details were as follows: 6 locations, 2 replications/location, 2 rows/plot, row length 12 feet (+3 ft alley), 9 seeds/foot, 108 seeds/row, 5 events (events 1-4 and a fifth event that was segregating); and 4 treatments as shown below in Table 4. In all, 240 plots were planted at 6 locations (40 per location).
Four non-transgenic border rows were planted all around the trial using a known commercial line such as A3525. Optimum production and management practices known in the art were followed. Maximum pest control and disease control was practiced as needed to prevent confounding effects of dicamba applications. The field was irrigated as needed according to standard practices.
The treatments were: untreated (Untrt); 1 lb/A dicamba at planting followed by 1 lb/A dicamba at V3 growth stage (1×1); 2 lb/A dicamba at planting followed by 2 lb/A dicamba at V3 growth stage (2×2); and 1 lb/A dicamba at planting followed by 1 lb/A dicamba at V3 growth stage followed by 1 lb/A dicamba at R1 stage (1×1×1).

[2] = system: transgenic soybean seeds containing the DMO gene; conditions: 22° C., 1 low, 2 moderate, 3 high, N=10
Protocol: Transgenic soybean seeds containing the DMO gene were germinated in the presence of 100 or 200 mM sodium chloride (NaCl, salt). […] A diglycoamine salt of dicamba (Clarity) was applied to 113.5 g samples of soy in a water based slurry that contained an agricultural dye. Slurry and dye rates were 8 and 0.5 fl oz/cwt. Aliquots of each dicamba solution were added to seeds contained in a glass jar and agitated. After uniform coverage was attained, seeds were placed on towels and allowed to dry. Non-DMO soybeans were treated at rates of 0, 0.5, 2.5, and 5.0 g ai/100 kg. DMO soybeans were treated with 0, 0.5 and 2.5 g ai/100 kg. Seed germination was scored DAT (2 days after treatment) or 5DAT (days after treatment) at 22° C. The germination rate was scored as 1—low, 2—moderate, 3—high for each treatment, N=10.

[3] = 24 hours at 30° C., RP-HPLC
Protocol: Leaf strip and whole plant studies were performed using liquid chromatography assays to determine metabolism of dicamba to DCSA in soybeans. Leaf tissue was removed from wild-type soybean plants and soybean plants transgenic for the DMO gene and were cut into 1 mm strips, the strips then incubated in 25 mM Tris pH 7.5 with radiolabeled dicamba (14C dicamba) for 24 hours at 30° C. After incubation, the leaf tissue was homogenized with a spinning pestle, acidified, solids pelleted by centrifugation and an aliquot of the supernatant analyzed by RP-HPLC equipped with a radiation detector.

[4] = system: soybean plants transgenic for the DMO gene; conditions: DMO transgenic soybean sprayed at up to 2.5 lb/A; various times; RP-HPLC
Protocol: For whole plant assays, soybean plants transgenic for the DMO gene were treated with 14C dicamba by spraying the plants with a solution containing the 14C dicamba at a rate up to 2.5 lb/A. Leaf samples from the treated plants were collected at various times after treatment and analyzed for the DMO metabolites by RP-HPLC. The leaf tissue was homogenized with a spinning pestle, acidified, solids pelleted by centrifugation and an aliquot of the supernatant analyze by RP-HPLC equipped with a radiation detector.

[5] = 200 mM NaCl, 0.5 g ai/100 kg dicamba seed treatment, 0.0 dicamba 1
[6] = 200 mM NaCl, 2.5 g ai/100 kg dicamba seed treatment, 0.0 dicamba 1

## COc1c(Cl)ccc(Cl)c1C(=O)O [Dicamba, 3,6-dichloro-2-methoxybenzoic acid]
[1]; DMO soybean, dicamba 1 lb/Acre at Post-V3
  time of peak induction of PR2: 48 h
[1]; DMO soybean, dicamba 1 lb/Acre at Post-V3, 0-72 HAT, no induction in untreated plants
  induction of PR2 at various time points: induction of PR2
[1]; two transgenic soybean lines, 0.25, 0.5 and 1 lb/Acre, 24 hrs after treatment, no induction in untreated or water only
  induction of PR2 at various rates: induction of PR2
PR5
  induction of PR5: Induction of PR5
Transgenic soybean; DMO soybean, dicamba 1.5 lb ae/Acre Pre, Post or both, in 4/5 events and 13/15 treatments, 6 locations
  yield compared with unsprayed controls: an increase or equivalent yield to unsprayed controls
Transgenic soybean; three DMO soybean events, dicamba treatments vs untreated, average of 15 locations
  increase in seed yield: up to 4.6%
Transgenic soybean; transgenic soybean, agronomic and efficacy trials
  maturity of dicamba treated plants compared with untreated plant: no delay in maturity
[2]; 100 mM NaCl, 0.5 g ai/100 kg dicamba seed treatment, 0.0 dicamba 1
  Germination rating 2DAT: 2
[2]; 100 mM NaCl, 0.5 g ai/100 kg dicamba seed treatment, 0.0 dicamba 2
  Germination rating 5DAT: 3
[2]; 100 mM NaCl, 2.5 g ai/100 kg dicamba seed treatment, 0.0 dicamba 1
  Germination rating 2DAT: 2
[2]; 100 mM NaCl, 2.5 g ai/100 kg dicamba seed treatment, 0.0 dicamba 2
  Germination rating 5DAT: 3
[2]; [5]
  Germination rating 2DAT: 1.5
  Germination rating 5DAT: 2
[2]; [6]
  Germination rating 2DAT: 1.5
  Germination rating 5DAT: 1
[3]; leaf strips of transgenic DMO gene containing soybean
  metabolism of radiolabeled dicamba: metabolized to DCSA and other polar metabolites
[3]; leaf strips of wild-type soybean
  metabolism of radiolabeled dicamba: not in the wild-type soybean plants
[4]
  metabolites of 14C dicamba in leaf samples: DCSA is produced as a metabolite of dicamba
